Results: the METLIN SMRT retention time set (Domingo-Almenara et al. 2019)

Assay: gradient 5% acetonitrile 3 min, to 50% in 2 min, to 85% in 15 min, held 3 min, 100 µL/min
Details: column: Zorbax Extend-C18 2.1 x 50 mm; eluents: water / acetonitrile, 0.1% formic acid
Procedure, shortened: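 Pure standards were analyzed in mixtures of ~100 molecules using HPLC coupled to a quadrupole time-of-flight mass spectrometer, in both positive and negative ionization mode. Separation used a Zorbax Extend-C18 column (2.1 × 50 mm, 1.8 μm) at 100 μL/min, with water and acetonitrile each containing 0.1% formic acid. Dead and dwell volumes were 40 μL and 900 μL, and data were collected over 3 months. Retention time was read from computationally picked adduct peaks, each inspected manually.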

`Cc1ccc(CNS(=O)(=O)c2cc(-c3cc(C(F)(F)F)on3)sc2C)cc1` showed an RP-LC retention time of 1230 s.
`CC(=O)C1CC[C@H]2[C@@H]3CC[C@@H]4CC(=O)CC[C@]4(C)[C@H]3CC[C@]12C` (stereo not given in full) gave an RP-LC retention time of 1050 s.
`CCOC(=O)c1nc(NCc2cccc(Cl)c2)c2ccccc2n1` gave an RP-LC retention time of 833 s.
`Cc1ccc(NS(=O)(=O)c2ccc3c(c2)C(=O)N(C)c2ncccc2O3)cc1F` gave an RP-LC retention time of 957 s.
`Cc1cccc(NC(=O)C2CCCN(c3nnc(C)c4c(C)n(-c5ccccc5)nc34)C2)c1C` (stereo not given) gave an RP-LC retention time of 754 s.
Compound `Cc1nc(-n2nc(C)c(Cl)c2C)sc1C(=O)N1CCOCC1` has an RP-LC retention time of 953 s.
For `O=C1NC2(CCN(C(=O)c3ccccc3)CC2)Nc2cc(Cl)ccc21`, the RP-LC retention time was 729 s.
`CCc1noc(NC(C)=O)c1-c1ccc(C)c(S(=O)(=O)Nc2cccc(F)c2)c1` gave an RP-LC retention time of 822 s.
`CSc1ccc(-c2nc3cnccn3c2Nc2ccccc2C)cc1` gave an RP-LC retention time of 974 s.
Work on `CCCCN1C(=O)C(NC(=O)c2cccc(OC)c2)(C(F)(F)F)C(C(C)=O)=C1C` (stereo not given) yielded an RP-LC retention time of 916 s.
With `CS(=O)(=O)N1CCC(C(=O)Nc2nnc(-c3ccc(F)cc3)o2)CC1` the RP-LC retention time was 636 s.
Compound `CCN(CC)S(=O)(=O)c1ccc(C)c(-c2nnc(-c3ccccc3Cl)o2)c1` has an RP-LC retention time of 1140 s.
For `CCC1CN(CC(=O)N2CCN(c3ccccn3)CC2)c2ccccc2S1` (stereo not given), the RP-LC retention time was 723 s.
`COC(=O)c1ccc(NC(=O)CC(C)S(=O)(=O)c2ccc3c(c2)NC(=O)CCS3)cc1` (stereo not given) gave an RP-LC retention time of 740 s.
In the case of `COC(=O)c1c(C)[nH]c(C(=O)N2CCCC(C(=O)NCCN3CCCCCC3)C2)c1C` (stereo not given), the RP-LC retention time was 610 s.
With `Cc1cc(NC(=O)CN2CCc3[nH]c4c(C)c(C)ccc4c(=O)c3C2)ccc1F` the RP-LC retention time was 626 s.
Work on `COc1ccc(-c2csc(CN3CCN(C(=O)C4CC4)CC3)n2)cc1` yielded an RP-LC retention time of 599 s.
For `O=C(NC1CC1)[C@@H]1C[C@H](Oc2ccccc2)CN1C(=O)c1n[nH]c2ccccc12`, the RP-LC retention time was 739 s.
With `CS(=O)(=O)c1ccc(SCC(=O)N2CCOCC2)c([N+](=O)[O-])c1` the RP-LC retention time was 636 s.
Compound `CCc1nncn1C1CCN(S(=O)(=O)c2cccc(Cl)c2)CC1` has an RP-LC retention time of 726 s.
`c1cc(-c2noc(-c3n[nH]c4c3CCCC4)n2)cc(-c2ccn[nH]2)c1` gave an RP-LC retention time of 836 s.
`O=C(O)[C@@H]1CN(Cc2ccccc2)C[C@@H]1C(=O)N1CCc2ccccc21` gave an RP-LC retention time of 641 s.
Compound `COc1ccc(NC(=O)N2C[C@@H]3C[C@H]2C[C@@H]3NC(=O)c2cccs2)cc1F` has an RP-LC retention time of 729 s.
With `COCCNC(=O)c1ncoc1-c1ccccc1C(=O)N1CCCC1` the RP-LC retention time was 635 s.
With `CCOCc1nc(C2CCCN(C(=O)NC(C)C)C2)no1` (stereo not given) the RP-LC retention time was 704 s.
With `COc1cccc(CNC(=O)CCc2nnc3c4cc(-c5ccccc5)nn4ccn23)c1` the RP-LC retention time was 752 s.
`CC(C)c1noc(-c2cc(=O)n(CC(=O)NCc3ccccc3Cl)c3ccccc23)n1` gave an RP-LC retention time of 988 s.
With `COc1ccc(NC(=O)Cn2nc3n(c2=O)CCCC3)cc1` the RP-LC retention time was 634 s.
With `NC(=O)[C@@H]1C[C@H](Oc2cccnc2)CN1C(=O)CC1CCCC1` the RP-LC retention time was 584 s.
`Cc1ccn(CC(C)NC(=O)c2cn3ccccc3n2)n1` (stereo not given) showed an RP-LC retention time of 583 s.
Work on `c1cncc(-c2nc(-c3ccc4c(c3)ncn4CCN3CCCCC3)no2)c1` yielded an RP-LC retention time of 581 s.
With `COc1cccc(-c2noc(C3CCCN3C(=O)Nc3cc(Cl)ccc3OC)n2)c1` (stereo not given) the RP-LC retention time was 1130 s.
`CCN1C(=O)c2cccnc2Sc2cc(CNC(=O)c3ccccc3F)ccc21` gave an RP-LC retention time of 702 s.
With `c1ccc(Nc2nc(-c3ccc4c(c3)OCO4)cs2)nc1` the RP-LC retention time was 849 s.
For `O=C(Nc1ccc2cn[nH]c2c1)c1ccc(=O)[nH]n1`, the RP-LC retention time was 567 s.
With `CCc1ccc(C(=O)CC2(O)C(=O)Nc3ccc(C)cc32)cc1` (stereo not given) the RP-LC retention time was 804 s.
Compound `O=C(Nc1ccc(F)c(C(F)(F)F)c1)C1COCC(=O)N1Cc1ccccc1` (stereo not given) has an RP-LC retention time of 824 s.
Work on `Cc1cc(F)ccc1NC(=O)C1CCCN1S(C)(=O)=O` (stereo not given) yielded an RP-LC retention time of 701 s.
In the case of `CC1CCN(c2cc(-c3nccn3CC(=O)NC3CCCCC3)ccn2)CC1`, the RP-LC retention time was 675 s.
Work on `O=C(Nc1cccn2c(C3CCC3)nnc12)c1ccco1` yielded an RP-LC retention time of 696 s.
For `CCOC(=O)c1noc2nc(C)nc(Nc3ccc(OC)cc3)c12`, the RP-LC retention time was 938 s.
Compound `Cc1ccc(CN2C[C@@H]3C(=O)N(C)C(=O)[C@@H]3C2)cc1C` has an RP-LC retention time of 604 s.
`Cn1nc(-c2ccccc2)cc1C(=O)NCCn1nc(-c2ccc(Cl)cc2)ccc1=O` showed an RP-LC retention time of 836 s.
Compound `CCn1cc(C(=O)Nc2cccc(OC)c2)c2cccnc21` has an RP-LC retention time of 809 s.
In the case of `Cc1cccc2nnc(N3CCCN(C(=O)c4cccs4)CC3)n12`, the RP-LC retention time was 541 s.
